Results taken from patent EP3666770A1, “NOVEL HETEROCYCLIC COMPOUNDS AS CDK8/19 INHIBITORS” (Joint Stock Company "Biocad", priority 2017, dated 2019).
Where two headings read alike, the source gives them in different places.

Tests used:
[1] = Chemical stability in human blood plasma; format: in vitro ADME; conditions: pooled human blood plasma; 10 µM; 4 hours at 37°C; substance amount in % after thermostatting
In short: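 Pooled plasma from ten healthy human donors; compound diluted from 10 mM DMSO stock to 10 µm final and incubated 4 h at 37°C. After acetonitrile protein precipitation, HPLC peak areas before and after incubation were compared; value is % compound remaining.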

[2] = Enzyme stability in human liver microsomes; format: in vitro ADME; conditions: pH 7.4; 0,5 mg/mL pooled human liver microsomes; 10 µM compound; 37°C; pH=7,4
In short: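 Pooled human liver microsomes (0,5 mg/mL) incubated at 37 °C with 10 µM compound, 2 mM β-NAD and 4 mM MgCl2 in 0,1 M sodium phosphate, pH 7,4. Samples quenched with acetonitrile and analysed by HPLC. Elimination rate constant taken from the slope of log peak area versus time, giving t1/2 and CLint.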

[3] = Permeability through Caco-2 cell monolayer; format: in vitro ADME; conditions: human, Caco-2; for Papp A→B at 2 h, 10 µM: A->B transfer, pH 6.5 -> pH 7.4, 2 hours at 37 °C; for efflux ratio at 2 h, 10 µM: efflux = Papp B-A / Papp A-B
In short: (§1)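 Caco-2 monolayers grown for 21 days (Lucifer Yellow integrity check) received 10 µM compound apically at pH 6.5 (A→B) or basolaterally at pH 7.4 with 1% BSA on the basolateral side (B→A). After 2 h at 37 °C, both chambers were quantified by HPLC. Efflux ratio = Papp B→A / Papp A→B.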

[4] = system: Caco-2 cell monolayer; assay: Permeability through Caco-2 cell monolayer; format: in vitro ADME; conditions: efflux = Papp B-A / Papp A-B
In short: as §1

[5] = Chemical stability in simulated gastric fluid (SGF); format: physicochemical; conditions: SGF without enzymes, pH=1,4; 10 µm; 2 hours at 37°C; substance amount in % after thermostatting
In short: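 Compounds at […] (diluted from DMSO stock) were incubated for 2 h at 37 °C in enzyme-free simulated gastric fluid, pH=1,4. HPLC peak areas before and after incubation gave the % of compound remaining.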

[6] = system: MV4-11; assay: Cell-based antiproliferative test (AlamarBlue), MV4-11; conditions: 120 h incubation, average values of several tests, read-out: MV-4-11 IC50, mkM
[7] = General cytotoxicity test on HepG2 cells; format: cell-based; conditions: human, HepG2 cells; 72 h incubation; 200 to 0.78 µM; average values of several tests; read-out: Hep-G2 CC50, mkM
Description: Cell viability was assessed using the above method. Table 6. […] The results are presented as average values of activity obtained in several tests.

[8] = Enzyme stability in human liver S9 fractions; format: in vitro ADME; conditions: 0,5 mg/mL pooled human liver S9 fractions, 10 µM compound, 37°C, pH=7,4; for microsomal CLint at 10 µM: pH 7.4
Description: Measuring of candidates' enzyme stability enabled estimation of the stability of the present compounds towards the action of enzymes in human liver S9 fractions.
Enzyme degradation rate was measured by incubating the reaction mixture in a dry block thermostat at 37°C, said reaction mixture comprising 0,5 mg/mL of pooled human liver S9 fractions (XenoTech, USA, cat#H0610), 10 µM compound, 2 mM β-nicotinamide adenine dinucleotide (Carbosynth, UK, cat#NN10871) and 4 mM magnesium chloride in 0,1 M sodium-phosphate buffer, pH=7,4. The reaction was quenched with acetonitrile (100 µL of acetonitrile / 100 µL of the reaction mixture). After quenching, the samples were centrifuged at 10000 rpm for 10 minutes. Supernatant fluid was tested by chromatographic technique using Agilent1200 (Agilent, USA). Chromatographic analysis was performed in a gradient elution regime with a flow rate of 1 mL/min. A graph of the logarithm of substance's peak area as a function of time was made.

[9] = system: KG-1; assay: Cell-based antiproliferative test (AlamarBlue), KG-1; conditions: 120 h incubation, average values of several tests, read-out: KG-1 IC50, mkM

In the case of `COc1ccc(-c2cnc3[nH]cc(C(=O)c4cccnc4)c3c2)c(C#N)c1` [CDK8-4-28, 5-Methoxy-2-(3-nicotinoyl-1H-pyrrolo[2,3-b]pyridin-5-yl) benzonitrile], the “Stability in blood plasma, %” value [1] is reported as 100%, the microsomal CLint at 10 µM [2] is reported as 6.8 µL/min/mg and the Papp A→B at 2 h, 10 µM [3] is reported as 68.9 ×10⁻⁶ cm/s. The efflux [4] was 0.03, the “Stability in SGF, %” value [5] was 100% and the IC50 ([6]; Homo sapiens, MV4-11, 120 h) was greater than 1000 nM. It also gave a CC50 at 72 h [7] greater than 200000 nM.

In the case of `Cn1cc(-c2ccc(-c3cnc(N)c4ncc(C(=O)N5CCC5)cc34)cc2)cn1` [CDK8-3-26, (8-Amino-5-(4-(1-methyl-1H-pyrazol-4-yl)phenyl)-1,7-naphthyridin-3-yl) (azetidin-1-yl)methanone], the “Stability in blood plasma, %” value [1] is reported as 95.8%, the microsomal CLint at 10 µM [8] is reported as 3.25 µL/min/mg and the Papp A→B at 2 h, 10 µM [3] is reported as 53.7 ×10⁻⁶ cm/s. For the same compound, the efflux ratio at 2 h, 10 µM [3] was 0.3, the IC50 ([9]; Homo sapiens, KG-1) was 3 nM and the IC50 ([6]; Homo sapiens, MV4-11, 120 h) was 11 nM. For the same compound, the CC50 at 72 h [7] was 4900 nM.

For `Cn1cc(-c2ccc(-c3cnc(N)c4ncc(C(=O)NCCO)cc34)cc2)cn1` [CDK8-3-42, 8-Amino-N-(2-hydroxyethyl)-5-(4-(1-methyl-1H-pyrazol-4-yl)phenyl)-1,7-naphthyridine-3-carboxamide], the “Stability in blood plasma, %” value [1] was 100%, the microsomal CLint at 10 µM [8] was 0.5 µL/min/mg and the Papp A→B at 2 h, 10 µM [3] was 11.8 ×10⁻⁶ cm/s. The efflux ratio at 2 h, 10 µM [3] was 1.6, the IC50 ([9]; Homo sapiens, KG-1) was 9 nM and the IC50 ([6]; Homo sapiens, MV4-11, 120 h) was 28 nM. It also gave a CC50 at 72 h [7] of 15900 nM.

In the case of `COCCNC(=O)c1cnc2c(N)ncc(-c3ccc(-c4cnn(C)c4)cc3)c2c1` [CDK8-3-24, 8-Amino-N-(2-methoxyethyl)-5-(4-(1-methyl-1H-pyrazol-4-yl)phenyl)-1,7-naphthyridine-3-carboxamide], the “Stability in blood plasma, %” value [1] is reported as 89.7%, the microsomal CLint at 10 µM [8] is reported as 4.6 µL/min/mg and the Papp A→B at 2 h, 10 µM [3] is reported as 17 ×10⁻⁶ cm/s. It also gave an efflux ratio at 2 h, 10 µM [3] of 1.1, an IC50 ([6]; Homo sapiens, MV4-11, 120 h) of 99 nM and a CC50 at 72 h [7] greater than 200000 nM.

With `COc1cc(-c2cnc3[nH]cc(C(=O)c4ccccn4)c3c2)ccc1N(C)C` [CDK8-4-21, (5-(4-(Dimethylamino)-3-methoxyphenyl)-1H-pyrrolo[2,3-b]pyridin-3-yl)(pyridin-2-yl)methanone] the “Stability in blood plasma, %” value [1] was 100%, the Papp A→B at 2 h, 10 µM [3] was 106 ×10⁻⁶ cm/s and the efflux [4] was 0.09. The “Stability in SGF, %” value [5] was 100%, the IC50 ([6]; Homo sapiens, MV4-11, 120 h) was 740 nM and the CC50 at 72 h [7] was 4700 nM.

For `COCCN(C)C(=O)c1cnc2c(N)ncc(-c3ccc(-c4cnn(C)c4)cc3)c2c1` [CDK8-3-32], the “Stability in blood plasma, %” value [1] was 100%, the microsomal CLint at 10 µM [8] was 3.8 µL/min/mg and the Papp A→B at 2 h, 10 µM [3] was 24.9 ×10⁻⁶ cm/s. The efflux ratio at 2 h, 10 µM [3] was 0.7, the IC50 ([9]; Homo sapiens, KG-1) was less than 10 nM and the IC50 ([6]; Homo sapiens, MV4-11, 120 h) was 10 nM. The CC50 at 72 h [7] was 20700 nM.

In the case of `CO[C@@H]1CCCN(C(=O)c2cnc3cncc(-c4ccc(-c5cnn(C)c5)cc4)c3c2)C1` [CDK8-3-21, (R)-(3-Methoxypiperidin-1-yl)(5-(4-(1-methyl-1H-pyrazol-4-yl)phenyl)-1,7-naphthyridin-3-yl)methanone], the microsomal CLint at 10 µM [8] is reported as 12.9 µL/min/mg, the IC50 ([6]; Homo sapiens, MV4-11, 120 h) is reported as 764 nM and the CC50 at 72 h [7] is reported as greater than 100000 nM.

In the case of `Cn1cc(-c2ccc(-c3cnc(N)c4ncc(C(=O)N5CCOCC5)cc34)cc2)cn1` [CDK8-3-27, (8-Amino-5-(4-(1-methyl-1H-pyrazol-4-yl)phenyl)-1,7-naphthyridin-3-yl) (morpholino)methanone], the “Stability in blood plasma, %” value [1] is reported as 94.2%, the microsomal CLint at 10 µM [8] is reported as 1.55 µL/min/mg and the Papp A→B at 2 h, 10 µM [3] is reported as 22.6 ×10⁻⁶ cm/s. For the same compound, the efflux ratio at 2 h, 10 µM [3] was 0.9, the IC50 ([6]; Homo sapiens, MV4-11, 120 h) was 66 nM and the CC50 at 72 h [7] was 19400 nM.

With `CCN(CC)C(=O)c1cnc2cncc(-c3ccc(-c4cnn(C)c4)cc3)c2c1` [CDK8-3-23, N,N-Diethyl-5-(4-(1-methyl-1H-pyrazol-4-yl)phenyl)-1,7-naphthyridine-3-carboxamide] the microsomal CLint at 10 µM [8] was 9.2 µL/min/mg, the IC50 ([6]; Homo sapiens, MV4-11, 120 h) was 413 nM and the CC50 at 72 h [7] was greater than 100000 nM.

With `Cn1cc(-c2ccc(-c3cncc4ncc(C(=O)NCC5CC5)cc34)cc2)cn1` [CDK8-3-39] the “Stability in S9, Clint” value [8] was 10.3 µL/min/mg, the IC50 [9] was 5 nM and the IC50 [6] was 55 nM.

In the case of `COCCN(C)C(=O)c1cnc2cncc(-c3ccc(-c4cnn(C)c4)cc3)c2c1` [CDK8-3-25, N-(2-Methoxyethyl)-N-methyl-5-(4-(1-methyl-1H-pyrazol-4-yl)phenyl)-1,7-naphthyridine-3-carboxamide], the microsomal CLint at 10 µM [8] is reported as 3.3 µL/min/mg, the Papp A→B at 2 h, 10 µM [3] is reported as 29.3 ×10⁻⁶ cm/s and the efflux ratio at 2 h, 10 µM [3] is reported as 0.6. It also gave an IC50 ([6]; Homo sapiens, MV4-11, 120 h) of 134 nM and a CC50 at 72 h [7] greater than 100000 nM.
